Results taken from BindingDB's records for doi:10.1016/j.bmcl.2007.01.081 (Roche Research Center, 2007).

How the values were obtained:
SJSA-1 = test: Antiproliferative activity against human SJSA1 cells
RKO = test: Antiproliferative activity against human RKO cells
SW480 = test: Antiproliferative activity against human SW480 cells
HCT-116 = test: Antiproliferative activity against human HCT116 cells
MDA-MB-435 = test: Antiproliferative activity against human MDA435 cells

| IC50 (SJSA-1) [nM] | IC50 (RKO) [nM] | IC50 (SW480) [nM] | IC50 (HCT-116) [nM] | IC50 (MDA-MB-435) [nM] | Structure (SMILES) |
| --- | --- | --- | --- | --- | --- |
| 4550 |  |  |  |  | O=C1N=C(NCc2cccs2)S/C1=C/c1ccc2ncccc2c1 |
| 3240 | 1390 | 3070 | 1580 | 2030 | O=C1N=C(N[C@@H](CO)Cc2ccccc2)SC1=Cc1ccc2ncccc2c1 [(R,Z)-2-(1-hydroxy-3-phenylpropan-2-ylamino)-5-(quinolin-6-ylmethylene)thiazol-4(5H)-one] |
| 1850 |  |  |  |  | O=C1N=C(N[C@@H]2C[C@H]2c2ccccc2)SC1=Cc1ccc2ncccc2c1 [(Z)-2-((1R,2S)-2-phenylcyclopropylamino)-5-(quinolin-6-ylmethylene)thiazol-4(5H)-one] |
